Here are results for 20 compounds from patent publication US6579868B1, “Purine derivatives and adenosine A2 receptor antagonists serving as preventives/remedies for diabetes” (Eisai Co., Ltd., priority 1998, dated 2003).

Where a name gives a salt, the structure may show the parent alone.

As a reminder, the IC50 is the midpoint of a concentration-inhibition curve. The Ki is a dissociation constant, usually derived from enzyme kinetics or from competition with a known ligand. Read a high Ki as weaker binding. By melting point is commonly meant the temperature, or range, at which the solid turns liquid.

Data set [1] concerns Hepatic cells of primary culture of rats. Briefly: Suppressing action to NECA-stimulated saccharogenesis (glucose release) in primary cultured rat hepatic cells. In kind it is cell-based. Conditions: 0.1 μM NECA, 1 h incubation, glucose released into medium. As to the method: Hepatic cells were separated by a collagenase perfusion method from liver of male rats of Wistar strain and subjected to a primary culture in a William's Medium E containing 5% of calf serum, 10^−6 M of insulin, 10^−7 M of dexamethasone and 30 ng/ml of pertussal toxin. After one day, the hepatic cells were washed with a Krebs-Ringer Bicarbonate buffer (pH 7.4 (KRB)) containing 10 mM of HEPES and 0.1% of bovine serum albumin and incubated with KRB at 37° C. After 30 minutes, 0.1 μM of NECA (N-ethylcarboxamide adenosine) and a test compound were added thereto at the same time, the mixture was incubated for additional one hour and the amount of glucose released into an incubation medium was measured.

For data set [2], the target named is T1, Human adenosine A1 receptor (Homo sapiens, UniProt P30542).
T1 construct: expressed in transfected cells; host or cells: CHOK1 cells (membrane specimen)
T1 sequence (P30542 1-326): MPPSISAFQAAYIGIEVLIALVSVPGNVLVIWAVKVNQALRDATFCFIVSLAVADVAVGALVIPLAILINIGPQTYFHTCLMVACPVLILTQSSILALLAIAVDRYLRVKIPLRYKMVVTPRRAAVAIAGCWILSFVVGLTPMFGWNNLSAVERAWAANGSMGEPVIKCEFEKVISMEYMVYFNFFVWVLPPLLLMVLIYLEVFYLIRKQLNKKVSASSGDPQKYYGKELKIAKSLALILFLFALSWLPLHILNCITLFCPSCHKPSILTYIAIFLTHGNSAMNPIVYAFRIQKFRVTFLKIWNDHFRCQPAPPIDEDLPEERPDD
Briefly: Adenosine A1 receptor binding experiment (3H-CCPA). Conditions: human A1 receptor expressed in CHOK1 membranes. The procedure: Human adenosine A1 receptor cDNA was subjected to an over-expression in CHOK1 cells and its membrane specimen was suspended in an incubation buffer (20 mM HEPES, 10 mM MgCl2 and 100 mM NaCl; pH 7.4) to make the concentration 66.7 μg/ml. To 0.45 ml of this membrane specimen were added 0.025 ml of tritium-labeled chlorocyclopentyl adenosine (60 nM ^3H-CCPA; 30 Ci/mmol) and 0.025 ml of the compound to be tested. The solution of the compound to be tested was prepared in such a manner that, firstly, the compound was dissolved in DMSO to make 20 mM concentration and then successively diluted each 10-fold using an incubation buffer. The mixture was allowed to stand at 30° C. for 120 minutes, subjected to a quick suction on a glass fiber filter (GF/B; manufactured by Whatman) and immediately washed with 5 ml of ice-cooled 50mM Tris-HCl buffer twice. After that, the glass fiber filter was transferred to a vial bottle, a scintillator was added and the radioactivity on the filter was measured by a liquid scintillation counter. Calculation of the inhibition rate of the test compound to the receptor bond (^3H-CCPA) was carried out by the following expression and, based upon that, IC50 was calculated.
Inhibition Rate (%)=[1−{(Binding amount in the presence of drug-Non-specific binding amount)/(Total binding amount-Non-specific binding amount)}]×100
Total binding amount is a ^3H-CCPA binding radioactivity in the absence of the test compound.
Non-specific binding amount is a ^3H-CCPA binding radioactivity in the presence of 100 μM of RPIA.
Binding amount in the presence of drug is a ^3H-CCPA binding radioactivity in the presence of the test compound of various concentrations.
The inhibition constant (Ki value) in Table was calculated from Cheng-Prusoff's expression.

For data set [3], the system named is spontaneous diabetic mice (KK-A^y/Ta Jcl). Briefly: Action to hyperglycemia of spontaneous diabetic mice (KK-A^y/Ta Jcl), single oral administration. In kind it is in vivo, mouse. Particulars: 5 h. As to the method: Animals: Five male KK-A^y/Ta Jcl mice for each group (purchased from Nippon Clair)
Preparation and Administration of Test Compound: A test compound in a dose as shown in Table 2 was suspended in a 0.5% aqueous solution of methyl cellulose and was orally administered in a dose of 10 ml/kg.
Collection of Blood Samples and Determination of Blood Sugar: Blood was collected from tail vein immediately before administration of the test compound and also five hours after the administration and blood sugar was determined.
Method: Tail vein of a mouse was injured by a razor without an anesthetization to bleed slightly. The blood (15 μl) was collected and immediately mixed with 135 μl of a 0.6 M perchloric acid. Glucose in the supernatant obtained by a centrifugal separation (at 1500 g for 10 minutes at 4° C. using a cooling centrifuge GS-6KR of Beckmann) was determined by a Glucose CII Test Wako (Wako Pure Chemicals).
The result is shown in terms of “(% ratio of the blood sugar after 5 hours from the administration to the blood sugar before the administration)±(standard error)”. The data were subjected to a one-way layout analysis of variance and then subjected to a multiple comparison of a Dunnett type. The case where p<0.05 was judged to be that a significant difference was available.
Animals: Five male KK-A^y/Ta Jcl mice for each group (introduced from Nippon Clair)
Preparation and Administration of Test Compound: A test compound in a dose shown in Table 6 was suspended in a 0.5% aqueous solution of methyl cellulose and was orally administered in a dose of 10 ml/kg.
Method: Tail vein of mouse was injured by a razor without an anesthetization to bleed slightly. The blood (15 μl) was collected and immediately mixed with 135 μl of a 0.6 M perchloric acid. Glucose in the supernatant obtained by a centrifugal separation (at 1500 g for 10 minutes at 4° C. using a cooling centrifuge GS-6KR of Beckmann) was determined by a Glucose CII Test Wako (Wako Pure Chemicals).
The result is shown in terms of “(% ratio of the blood sugar after 5 hours from the administration to the blood sugar before the administration)±(standard error)”. The data were subjected to a one-way layout analysis of variance and then subjected to a multiple comparison of Dunnett type. The case where p<0.05 was judged that a significant difference was available.

For the compound `CN(C)c1ccc(-n2c(-c3cccc(F)c3)nc3c(N)nc(C#CC4(O)CCCCC4)nc32)cc1` [Example 3, 1-{2-[6-Amino-9-[4-(dimetylamino)phenyl]-8-(3-fluorophenyl)-9H-2-purinyl]-1-ethynyl}-1-cyclohexanol Dihydrochloride], the 50% inhibitory concentration (IC50) in data set [1] is 130 nM.

In data set [2], `CCn1c(=O)c2c(nc(/C=C/c3ccc(OC)c(OC)c3)n2C)n(CC)c1=O` came in with a Ki of more than 10000 nM.

In the case of `Cl.Cn1c(-c2cccc(F)c2)nc2c(N)nc(C#CC3(O)CCC3)nc21` [Example 89, 1-{2-[6-Amino-8-(3-fluorophenyl)-9-methyl-9H-2-purinyl]-1-ethynyl}-1-cyclobutanol Hydrochloride], the melting point lay in the range of 198 to 199 °C. In data set [1], the half-maximal inhibitory concentration (IC50) turned out to be 430 nM. Besides, the “% ratio of the blood sugar after 5 hours from the administration to the blood sugar before the administration ± standard error” value in data set [3] (Table 2-2, 30 mg/kg oral, solvent group 67.6 ± 2.4) is given as 38.3 ± 4.4%.

Take `Cn1c(-c2cccc(F)c2)nc2c(N)nc(C#CC3(O)CCCC3)nc21` [drawing 260]: affinity in data set [2] was put at a Ki of 19 nM.

With `Cn1c(-c2cccc(F)c2)nc2c(N)nc(C#CC(C)(C)O)nc21` [Example 64 (sulfate), Hydrochloride], the IC50 in data set [1] came out at 730 nM.

Consider `Cl.Cn1c(-c2cccc(F)c2)nc2c(N)nc(C#CC(C)(C)O)nc21` [Example 64, 4-[6-Amino-8-(3-fluorophenyl)-9-methyl-9H-2-purinyl]-2-methyl-3-butyn-2-ol Hydrochloride], for which the “% ratio of the blood sugar after 5 hours from the administration to the blood sugar before the administration ± standard error” value in data set [3] (Table 2-2, 10 mg/kg oral, solvent group 67.6 ± 2.4) was 42.3 ± 4.8%.

As for `CCn1c(-c2cccc(F)c2)nc2c(N)nc(/C=C/C(C)(C)O)nc21.Cl` [Example 210, (E)-4-[6-Amino-9-ethyl-8-(3-fluorophenyl)-9H-2-purinyl]-2-methyl-3-buten-2-ol Hydrochloride], the IC50 in data set [1] turned out to be 520 nM. The “% ratio of the blood sugar after 5 hours from the administration to the blood sugar before the administration ± standard error” value in data set [3] (Table 2-3, 10 mg/kg oral, solvent group 70.7 ± 4.6) is on record as 51.5 ± 4.6%.

On to `Cn1c(-c2cccc(F)c2)nc2c(N)nc(C#CC3(O)CCCC3)nc21` [Example 19, 1-{2-[6-Amino-8-(3-fluorophenyl)-9-methyl-9H-2-purinyl]-1-ethynyl}-1-cyclopentanol Sulfate], for which the 50% inhibitory concentration (IC50) in data set [1] stood at 470 nM.

`CCn1c(-c2cccc(F)c2)nc2c(N)nc(CCC(O)(CC)CC)nc21` [Example 235, 1-[6-Amino-9-ethyl-8-(3-fluorophenyl)-9-2-purinyl]-3-ethyl]-3-pentanol Hydrochloride]: the IC50 in data set [1] turned out to be 1270 nM.

In turn, `CCn1c(-c2cccc(F)c2)nc2c(N)nc(C#CC3(O)CCCC3)nc21.Cl` [Example 133, 1-{2-[6-Amino-9-ethyl-8-(3-fluorophenyl)-9H-2-purinyl]-1-ethynyl}-1-cyclopentanol Hydrochloride] returned a melting point of 188 to 191 °C. In data set [1], the IC50 turned out to be 200 nM.

In data set [2], `CCCn1c(=O)c2c(nc(/C=C/c3ccc(OC)c(OC)c3)n2C)n(CCC)c1=O` [drawing 263] registered an inhibition constant (Ki) of more than 10000 nM.

With `CCCn1c(-c2cccc(F)c2)nc2c(N)nc(C#CC(C)(C)O)nc21.Cl` [Example 171, 4-[6-Amino-8-(3-fluorophenyl)-9-propyl-9H-2-purinyl]-2-methyl-3-butyn-2-ol Hydrochloride], the melting point is 167 to 168 °C. Besides, in data set [1], the IC50 was 1010 nM.

As to `Cn1c(-c2cccc(F)c2)nc2c(N)nc(C#CC3(O)CCCCC3)nc21` [Example 31, 1-{2-[6-Amino-8-(3-fluorophenyl)-9-methyl-9H-2-purinyl]1-ethynyl}-1-cyclohexanol Hydrochloride], the IC50 in data set [1] was 130 nM.

In turn, `CCCn1c(-c2cccc(F)c2)nc2c(N)nc(C#CC3(O)CCC3)nc21.Cl` [Example 170, 1-{2-[6-Amino-8-(3-fluorophenyl)-9-propyl-9H-2-purinyl]-1-ethynyl}-1-cyclobutanol Hydrochloride] had a melting point of 144 to 146 °C. In addition, in data set [1], the concentration for half-maximal inhibition (IC50) was found to be 500 nM.

For the compound `CCCn1c(-c2cccc(F)c2)nc2c(N)nc(C#CC3(O)CCCC3)nc21.Cl` [Example 169, 1-{2-[6-Amino-8-(3-fluorophenyl)-9-propyl-9H-2-purinyl]-1-ethynyl}-1-cyclopentanol Hydrochloride], the melting point is 198 to 200 °C. In data set [1], the IC50 came out at 480 nM.

In turn, `Cl.Cn1c(-c2cccc(F)c2)nc2c(N)nc(/C=C/C3(O)CCC3)nc21` [Example 215, 1-[(E)-[6-Amino-8-(3-fluorophenyl)-9-methyl-9H-2-purinyl]-1-ethenyl]-1-cyclobutanol Hydrochloride] gave a melting point of 181 to 184 °C. In data set [1], the IC50 came out at 220 nM.

For the compound `CCn1c(-c2cccc(F)c2)nc2c(N)nc(C#CC3(O)CCC3)nc21.Cl` [Example 8, 1-{2-[6-Amino-9-ethyl-8-(3-fluorophenyl)-9H-2-purinyl]-1-ethynyl}-1-cyclobutanol Hydrochloride], the melting point lay within 160 to 163 °C. Besides, the IC50 in data set [1] was found to be 490 nM. For the same compound, the “% ratio of the blood sugar after 5 hours from the administration to the blood sugar before the administration ± standard error” value in data set [3] (Table 2-1, 10 mg/kg oral, solvent group 72.4 ± 4.4) is listed as 47.8 ± 4.8%.

`COC1CCCCC1(O)C#Cc1nc(N)c2nc(-c3cccc(F)c3)n(C)c2n1` (stereo not shown) [Example 121, 1-{2-[6-Amino-8-(3-fluorophenyl)-9-methyl-9H-2-purinyl]-1-ethynyl}-2-methoxy-1-cyclohexanol] returned a melting point of 195 to 197 °C.

`CCn1c(-c2cccc(F)c2F)nc2c(N)nc(C#CC(O)(CC)CC)nc21.Cl` displayed a melting point of 222 to 224 °C.

As for `Cl.Cn1c(-c2cccc(F)c2)nc2c(N)nc(/C=C/C3(O)CCCC3)nc21` [Example 208, 1-[(E)-2-[6-Amino-8-(3-fluorophenyl)-9-methyl-9H-2-purinyl]-1-ethenyl]-1-cyclopentanol Hydrochloride], the melting point is more than 290 °C. The IC50 in data set [1] was 270 nM.
